According to PubChem BioAssay AID330 (DTP/NCI, 2004):
Several values for one entry are separate records, joined by “and”; a condition that tells them apart may be missing. Equal entries are not always repeated. Toxic doses and inconclusive results are not listed.

Tested on: P388 leukemia ip, CD2F1 mice, survival T/C
Assay: NCI In Vivo Anticancer Drug Screen. Data for tumor model P388 Leukemia (intraperitoneal) in CD2F1 (CDF1) mice
Settings: endpoint: median survival time, higher = longer survival
Procedure, shortened: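 Mice carrying the transplanted tumor received test compound or vehicle. Survival was recorded in each group, and the value is the treated-group measurement divided by that of the vehicle-treated control group.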

[1] = dose: 50.0 mg/kg/injection, schedule: Q01DX009 (ip), vehicle: saline
[2] = dose: 100.0 mg/kg/injection, schedule: Q01DX009 (ip), vehicle: saline
[3] = dose: 200.0 mg/kg/injection, schedule: Q01DX009 (ip), vehicle: saline
[4] = dose: 60.0 mg/kg/injection, schedule: Q01DX005 (ip), vehicle: saline with Tween-80
[5] = dose: 120.0 mg/kg/injection, schedule: Q01DX005 (ip), vehicle: saline with Tween-80
[6] = dose: 50.0 mg/kg/injection, schedule: Q01DX005 (ip), vehicle: saline with Tween-80
[7] = dose: 100.0 mg/kg/injection, schedule: Q01DX005 (ip), vehicle: saline with Tween-80
[8] = dose: 200.0 mg/kg/injection, schedule: Q01DX005 (ip), vehicle: saline with Tween-80
[9] = dose: 100.0 mg/kg/injection, schedule: Q01DX001 (ip), vehicle: saline with Tween-80
[10] = dose: 200.0 mg/kg/injection, schedule: Q01DX001 (ip), vehicle: saline with Tween-80
[11] = dose: 50.0 mg/kg/injection, schedule: Q01DX009 (ip), vehicle: Klucel (hydroxypropylcellulose) (HPC)
[12] = dose: 100.0 mg/kg/injection, schedule: Q01DX009 (ip), vehicle: Klucel (hydroxypropylcellulose) (HPC)
[13] = dose: 100.0 mg/kg/injection, schedule: Q01DX009 (ip), vehicle: saline with Tween-80
[14] = dose: 200.0 mg/kg/injection, schedule: Q01DX009 (ip), vehicle: saline with Tween-80
[15] = dose: 50.0 mg/kg/injection, schedule: Q01DX009 (ip), vehicle: saline with Tween-80
[16] = dose: 100.0 mg/kg/injection, schedule: Q04DX002 (ip), vehicle: Klucel (hydroxypropylcellulose) (HPC)
[17] = dose: 200.0 mg/kg/injection, schedule: Q04DX002 (ip), vehicle: Klucel (hydroxypropylcellulose) (HPC)
[18] = dose: 400.0 mg/kg/injection, schedule: Q04DX002 (ip), vehicle: Klucel (hydroxypropylcellulose) (HPC)

NC1=NC(=O)N2CC12 (configuration not stated)
T/C [1]: 122 % of control | T/C [2]: 153 % of control and 158 % of control | T/C [3]: 100 % of control

COC1C(CO)OC(Oc2ccc(C(=C3CCCCC3)c3ccc(O)cc3)cc2)C(O)C1O (configuration not stated)
T/C [1]: 95 % of control | T/C [2]: 95 % of control | T/C [3]: 94 % of control

O=C1NC(O)(c2ccccc2)c2cnncc21 (configuration not stated)
T/C [4]: 90 % of control | T/C [5]: 93 % of control | T/C (dose: 240.0 mg/kg/injection, schedule: Q01DX005 (ip), vehicle: saline with Tween-80): 93 % of control

Brc1ccc(-n2c(-c3ccccc3)cs/c2=N\Nc2nnc(-c3ccccc3)c(-c3ccccc3)n2)cc1
T/C [6]: 101 % of control | T/C [7]: 87 % of control | T/C [8]: 92 % of control

O=C1OC(C(O)CO)C(O)C1O (configuration not stated)
T/C (dose: 50.0 mg/kg/injection, schedule: Q01DX005 (ip), vehicle: Klucel (hydroxypropylcellulose) (HPC)): 99 % of control | T/C (dose: 50.0 mg/kg/injection, schedule: Q01DX005 (ip), vehicle: saline): 94 % of control and 109 % of control and 102 % of control | T/C (dose: 100.0 mg/kg/injection, schedule: Q01DX005 (ip), vehicle: Klucel (hydroxypropylcellulose) (HPC)): 97 % of control | T/C (dose: 100.0 mg/kg/injection, schedule: Q01DX005 (ip), vehicle: saline): 96 % of control and 105 % of control and 98 % of control | T/C (dose: 200.0 mg/kg/injection, schedule: Q01DX005 (ip), vehicle: Klucel (hydroxypropylcellulose) (HPC)): 101 % of control | T/C (dose: 200.0 mg/kg/injection, schedule: Q01DX005 (ip), vehicle: saline): 96 % of control and 105 % of control

CC(C)C1SCCS1
T/C (dose: 50.0 mg/kg/injection, schedule: Q01DX001 (ip), vehicle: saline with Tween-80): 102 % of control | T/C [9]: 106 % of control | T/C [10]: 99 % of control

CCNSc1ccccc1
T/C [11]: 106 % of control

Cc1ccc2nc(N3C(=O)CSC3=S)sc2c1
T/C [11]: 100 % of control | T/C [12]: 96 % of control

CN(C)N=Nc1ccc(NC(N)=O)cc1
T/C (dose: 100.0 mg/kg/injection, schedule: Q04DX003 (ip), vehicle: saline + Tween-80 + alcohol): 154 % of control

CCCCCC(=O)c1c(O)cc2c(c1O)C(=O)c1c(O)cc(OC)cc1C2=O
T/C (dose: 6.25 mg/kg/injection, schedule: Q01DX009 (ip), vehicle: saline with Tween-80): 93 % of control | T/C (dose: 12.5 mg/kg/injection, schedule: Q01DX009 (ip), vehicle: saline with Tween-80): 93 % of control

Nc1ncnc2c1c1c(=O)[nH]c(=O)[nH]c1n2C1OC(CO)C(O)C1O (configuration not stated)
T/C (dose: 25.0 mg/kg/injection, schedule: Q01DX005 (ip), vehicle: distilled water + Tween-80): 113 % of control | T/C (dose: 50.0 mg/kg/injection, schedule: Q01DX005 (ip), vehicle: distilled water + Tween-80): 110 % of control | T/C (dose: 100.0 mg/kg/injection, schedule: Q01DX005 (ip), vehicle: distilled water + Tween-80): 111 % of control | T/C (dose: 200.0 mg/kg/injection, schedule: Q01DX005 (ip), vehicle: distilled water + Tween-80): 111 % of control | T/C (dose: 400.0 mg/kg/injection, schedule: Q01DX005 (ip), vehicle: distilled water + Tween-80): 121 % of control

COc1cc(OC)c(OC)cc1/C=C/c1ccc2ccccc2n1
T/C [13]: 110 % of control | T/C [14]: 110 % of control | T/C (dose: 400.0 mg/kg/injection, schedule: Q01DX009 (ip), vehicle: saline with Tween-80): 110 % of control

O=C1c2c(Cl)c(Cl)c(Cl)c(Cl)c2C(=O)N1c1ccccc1-c1ccccc1
T/C (dose: 87.5 mg/kg/injection, schedule: Q01DX009 (ip), vehicle: saline with Tween-80): 97 % of control | T/C (dose: 175.0 mg/kg/injection, schedule: Q01DX009 (ip), vehicle: saline with Tween-80): 97 % of control | T/C (dose: 350.0 mg/kg/injection, schedule: Q01DX009 (ip), vehicle: saline with Tween-80): 97 % of control

COP(=S)(OC)Oc1cc(Cl)c(Cl)cc1Cl
T/C (dose: 50.0 mg/kg/injection, schedule: Q04DX003 (ip), vehicle: saline): 100 % of control | T/C (dose: 100.0 mg/kg/injection, schedule: Q04DX003 (ip), vehicle: saline): 102 % of control | T/C (dose: 200.0 mg/kg/injection, schedule: Q04DX003 (ip), vehicle: saline): 103 % of control | T/C (dose: 400.0 mg/kg/injection, schedule: Q04DX003 (ip), vehicle: saline): 102 % of control

CCOc1cc(/C=C2\SC(=O)N(CC)C2=O)ccc1O
T/C [15]: 108 % of control | T/C [13]: 109 % of control | T/C [14]: 90 % of control

COc1ccc2nc(CC(=N)c3ccc(N(C)C)cc3)ccc2c1
T/C [6]: 89 % of control | T/C [7]: 89 % of control | T/C [8]: 92 % of control

Nc1ccc2cc(S(=O)(=O)O)cc(O)c2c1N=Nc1ccc(F)cc1
T/C (dose: 25.0 mg/kg/injection, schedule: Q01DX009 (ip), vehicle: saline): 93 % of control | T/C [1]: 93 % of control | T/C [2]: 88 % of control and 91 % of control

COc1ccc2c3c1OC1C(OC)(OC)C=C[C@@]4(Br)[C@@H](C2)N(C)CC[C@]314 (some centres not stated)
T/C [9]: 109 % of control | T/C [10]: 106 % of control | T/C (dose: 400.0 mg/kg/injection, schedule: Q01DX001 (ip), vehicle: saline with Tween-80): 123 % of control

COc1cc(/C=N/N2CN(C(C)C(=O)O)B(Nc3ncccn3)N=C2N)cc(OC)c1 (configuration not stated)
T/C (dose: 60.0 mg/kg/injection, schedule: Q01DX005 (ip), vehicle: saline): 103 % of control | T/C (dose: 120.0 mg/kg/injection, schedule: Q01DX005 (ip), vehicle: saline): 111 % of control | T/C (dose: 240.0 mg/kg/injection, schedule: Q01DX005 (ip), vehicle: saline): 112 % of control

O=C(Nc1ccc(S(=O)(=O)F)cc1)/C(=C/c1ccc([N+](=O)[O-])cc1)c1ccccc1
T/C [4]: 102 % of control | T/C [5]: 97 % of control

CCOc1ccc(N2C(=O)C(=O)C(C(C)=O)C2=O)cc1 (configuration not stated)
T/C [11]: 108 % of control | T/C [12]: 106 % of control | T/C (dose: 200.0 mg/kg/injection, schedule: Q01DX009 (ip), vehicle: Klucel (hydroxypropylcellulose) (HPC)): 100 % of control

CSC(C(O)C(O)C(O)C(O)CO)n1cnc2c(=S)nc[nH]c21 (configuration not stated)
T/C [6]: 99 % of control | T/C [7]: 96 % of control | T/C [8]: 99 % of control

NC(/N=C/c1cc(Cl)cc(Cl)c1O)=N\S(=O)(=O)c1ccc(N=Cc2cc(Cl)cc(Cl)c2O)cc1
T/C [15]: 98 % of control | T/C [13]: 91 % of control | T/C [14]: 98 % of control

CN=C1NC2C(C(=O)N(C)C(=O)N2C)C(=S)N1C (configuration not stated)
T/C (dose: 6.25 mg/kg/injection, schedule: Q04DX002 (ip), vehicle: saline with Tween-80): 100 % of control | T/C (dose: 12.5 mg/kg/injection, schedule: Q04DX002 (ip), vehicle: saline with Tween-80): 104 % of control | T/C (dose: 25.0 mg/kg/injection, schedule: Q04DX002 (ip), vehicle: saline with Tween-80): 101 % of control

Clc1ccc(-c2cn3c(n2)SCC3)cc1
T/C (dose: 100.0 mg/kg/injection, schedule: Q01DX001 (ip), vehicle: Klucel (hydroxypropylcellulose) (HPC)): 121 % of control | T/C [16]: 102 % of control | T/C (dose: 200.0 mg/kg/injection, schedule: Q01DX001 (ip), vehicle: Klucel (hydroxypropylcellulose) (HPC)): 88 % of control | T/C [17]: 104 % of control | T/C [18]: 106 % of control

CCOC1CC(=O)C2(C)C3CCC4(C)C(C(C)C5CC(C)=C(C)C(=O)O5)CCC4C3CC3OC32C1O (configuration not stated)
T/C (dose: 9.12 mg/kg/injection, schedule: Q01DX009 (ip), vehicle: saline + alcohol): 101 % of control | T/C (dose: 18.25 mg/kg/injection, schedule: Q01DX009 (ip), vehicle: saline + alcohol): 96 % of control | T/C (dose: 36.5 mg/kg/injection, schedule: Q01DX009 (ip), vehicle: saline + alcohol): 100 % of control

NC(=S)N/N=C/c1c(-c2ccc(-c3ccccc3)cc2)nc2n1CCS2
T/C [16]: 98 % of control | T/C [17]: 104 % of control | T/C [18]: 99 % of control

O=C1OCCC12C(c1ccccc1)C1(CCOC1=O)C2c1ccccc1 (configuration not stated)
T/C (dose: 1.87 mg/kg/injection, schedule: Q01DX005 (ip), vehicle: Klucel (hydroxypropylcellulose) (HPC)): 94 % of control | T/C (dose: 3.75 mg/kg/injection, schedule: Q01DX005 (ip), vehicle: Klucel (hydroxypropylcellulose) (HPC)): 94 % of control | T/C (dose: 7.5 mg/kg/injection, schedule: Q01DX005 (ip), vehicle: Klucel (hydroxypropylcellulose) (HPC)): 86 % of control | T/C (dose: 60.0 mg/kg/injection, schedule: Q01DX005 (ip), vehicle: Klucel (hydroxypropylcellulose) (HPC)): 86 % of control | T/C (dose: 240.0 mg/kg/injection, schedule: Q01DX005 (ip), vehicle: Klucel (hydroxypropylcellulose) (HPC)): 94 % of control
